In ChEMBL document CHEMBL1132138, “Leishmanicidal activity of combretastatin analogues and heteroanalogues” (Bioorg Med Chem Lett, 1999):
Calls of active or inactive are those of the source. The rule behind the calls is not given here.

Tests used:
Assay type in all cases: functional, organism-based
[1] = test system: Leishmania amazonensis; assay: In vitro evaluation of leishmanicidal activity against Leishmania amazonensis (PH8) at a dose 50 ug/mL; ++ = 80- 90% lysis
[2] = test system: Leishmania braziliensis; assay: In vitro evaluation of leishmanicidal activity against Leishmania brasiliensis (2903) at a dose 100 ug/mL; ++ = 80- 90% lysis
[3] = test system: Leishmania donovani; assay: In vitro evaluation of leishmanicidal activity against Leishmania donovani (PP75) at a dose 50 ug/mL; ++ = 80- 90% lysis
[4] = test system: Leishmania braziliensis; assay: In vitro evaluation of leishmanicidal activity against Leishmania brasiliensis (2903) at a dose 50 ug/mL; ++ = 80- 90% lysis
[5] = test system: Leishmania amazonensis; assay: In vitro evaluation of leishmanicidal activity against Leishmania amazonensis (PH8) at a dose 100 ug/mL; ++ = 80- 90% lysis
[6] = test system: Leishmania amazonensis; assay: In vitro evaluation of leishmanicidal activity against Leishmania amazonensis (PH8) at a dose 100 ug/mL; + = <70% lysis
[7] = test system: Leishmania donovani; assay: In vitro evaluation of leishmanicidal activity against Leishmania donovani (PP75) at a dose 100 ug/mL; + = <70% lysis
[8] = test system: Leishmania braziliensis; assay: In vitro evaluation of leishmanicidal activity against Leishmania brasiliensis (2903) at a dose 100 ug/mL; + = <70% lysis
[9] = test system: Leishmania amazonensis; assay: In vitro evaluation of leishmanicidal activity against Leishmania amazonensis (PH8) at a dose 50 ug/mL;++ = 80- 90% lysis
[10] = test system: Leishmania donovani; assay: In vitro evaluation of leishmanicidal activity against Leishmania donovani (PP75) at a dose 10 ug/mL; ++ = 80- 90% lysis
[11] = test system: Leishmania braziliensis; assay: In vitro evaluation of leishmanicidal activity against Leishmania brasiliensis (2903) at a dose 10 ug/mL; ++ = 80- 90% lysis
[12] = test system: Leishmania amazonensis; assay: In vitro evaluation of leishmanicidal activity against Leishmania amazonensis (PH8) at a dose 10 ug/mL; ++ = 80- 90% lysis
[13] = test system: Leishmania braziliensis; assay: In vitro evaluation of leishmanicidal activity against Leishmania brasiliensis (2903) at a dose 10 ug/mL; +++=total lysis of parasites
[14] = test system: Leishmania donovani; assay: In vitro evaluation of leishmanicidal activity against Leishmania donovani (PP75) at a dose 25 ug/mL; +++=total lysis of parasites
[15] = test system: Leishmania amazonensis; assay: In vitro evaluation of leishmanicidal activity against Leishmania amazonensis (PH8) at a dose 25 ug/mL; Total lysis of parasites
[16] = test system: Leishmania donovani; assay: In vitro evaluation of leishmanicidal activity against Leishmania donovani (PP75) at a dose 50 ug/mL; +++=total lysis of parasites
[17] = test system: Leishmania braziliensis; assay: In vitro evaluation of leishmanicidal activity against Leishmania brasiliensis (2903) at a dose 50 ug/mL; +++=total lysis of parasites
[18] = test system: Leishmania amazonensis; assay: In vitro evaluation of leishmanicidal activity against Leishmania amazonensis (PH8) at a dose 10 ug/mL; +++=total lysis of parasites
[19] = test system: Leishmania amazonensis; assay: In vitro evaluation of leishmanicidal activity against Leishmania amazonensis (PH8) at a dose 100 ug/mL; +++=total lysis of parasites
[20] = test system: Leishmania amazonensis; assay: In vitro evaluation of leishmanicidal activity against Leishmania amazonensis (PH8) at a dose 50 ug/mL; Total lysis of parasites
[21] = test system: Leishmania donovani; assay: In vitro evaluation of leishmanicidal activity against Leishmania donovani (PP75) at a dose 100 ug/mL; +++=total lysis of parasites
[22] = test system: Leishmania donovani; assay: In vitro evaluation of leishmanicidal activity against Leishmania donovani (PP75) at a dose 10 ug/mL; +++=total lysis of parasites
[23] = test system: Leishmania braziliensis; assay: In vitro evaluation of leishmanicidal activity against Leishmania brasiliensis (2903) at a dose 25 ug/mLv
[24] = test system: Leishmania braziliensis; assay: In vitro evaluation of leishmanicidal activity against Leishmania brasiliensis (2903) at a dose 100 ug/mL; +++=total lysis of parasites
[25] = test system: Leishmania donovani; assay: In vitro evaluation of leishmanicidal activity against Leishmania donovani (PP75) at a dose 100 ug/mL; ++ = 80- 90% lysis
[26] = test system: Leishmania amazonensis; assay: In vitro evaluation of leishmanicidal activity against Leishmania amazonensis (PH8) at a dose 25 ug/mL; ++ = 80- 90% lysis
[27] = test system: Leishmania donovani; assay: In vitro evaluation of leishmanicidal activity against Leishmania donovani (PP75) at a dose 25 ug/mL; ++ = 80- 90% lysis
[28] = test system: Leishmania braziliensis; assay: In vitro evaluation of leishmanicidal activity against Leishmania brasiliensis (2903) at a dose 25 ug/mL; ++ = 80- 90% lysis
[29] = test system: Leishmania braziliensis; assay: Compound was tested in vitro for leishmanicidal activity against Leishmania brasiliensis (2903) at a dose 100 ug/mL; ++ = 80-90% of lysis
[30] = test system: Leishmania amazonensis; assay: In vitro evaluation of leishmanicidal activity against Leishmania amazonensis (PH8) at a dose 100 ug/mL; ++ = 80-90% of lysis
[31] = test system: Leishmania donovani; assay: Compound was tested in vitro for leishmanicidal activity against Leishmania donovani (PP75) at a dose 100 ug/mL; ++ = 80-90% of lysis

COc1ccc(CCc2ccc3c(c2)OCO3)cc1O
Leishmanicidal activity [1]: 80- 90% lysis | Leishmanicidal activity [2]: 80- 90% lysis | Leishmanicidal activity [3]: 80- 90% lysis | Leishmanicidal activity [4]: 80- 90% lysis | Leishmanicidal activity [5]: 80- 90% lysis

COc1cc(C(O)C(=O)c2cccs2)cc(OC)c1OC (stereo not given)
Leishmanicidal activity [6]: <70% lysis | Leishmanicidal activity [7]: <70% lysis | Leishmanicidal activity [8]: <70% lysis

COc1ccc2[nH]c(-c3ccc4c(c3)OCO4)c(-c3cc(OC)c(OC)c(OC)c3)c2c1
Leishmanicidal activity [3]: 80- 90% lysis | Leishmanicidal activity [4]: 80- 90% lysis | Leishmanicidal activity [9]: 80- 90% lysis

COc1cc(CC(=O)c2ccco2)cc(OC)c1OC
Leishmanicidal activity [10]: 80- 90% lysis | Leishmanicidal activity [11]: 80- 90% lysis | Leishmanicidal activity [12]: 80- 90% lysis

COc1cc(CCc2ccoc2)cc(OC)c1OC
Leishmanicidal activity [7]: <70% lysis | Leishmanicidal activity [8]: <70% lysis

N=C(N)c1ccc(OCCCCCOc2ccc(C(=N)N)cc2)cc1
Leishmanicidal activity [13]: Active | Leishmanicidal activity [14]: Active | Leishmanicidal activity [15]: Active | Leishmanicidal activity [16]: Active | Leishmanicidal activity [17]: Active | Leishmanicidal activity [18]: Active | Leishmanicidal activity [19]: Active | Leishmanicidal activity [20]: Active | Leishmanicidal activity [21]: Active | Leishmanicidal activity [22]: Active | Leishmanicidal activity [23]: Active | Leishmanicidal activity [24]: Active

COc1ccc2[nH]c(-c3ccc4ccccc4c3)c(-c3cc(OC)c(OC)c(OC)c3)c2c1
Leishmanicidal activity [2]: 80- 90% lysis | Leishmanicidal activity [5]: 80- 90% lysis | Leishmanicidal activity [25]: 80- 90% lysis

COc1cc(CCc2ccco2)cc(OC)c1OC
Leishmanicidal activity [10]: 80- 90% lysis | Leishmanicidal activity [26]: 80- 90% lysis | Leishmanicidal activity [11]: 80- 90% lysis | Leishmanicidal activity [27]: 80- 90% lysis | Leishmanicidal activity [25]: 80- 90% lysis | Leishmanicidal activity [28]: 80- 90% lysis | Leishmanicidal activity [12]: 80- 90% lysis

COc1cc(CC(O)c2ccc3c(c2)OCO3)cc(OC)c1OC (stereo not given)
Leishmanicidal activity [1]: 80- 90% lysis | Leishmanicidal activity [10]: 80- 90% lysis | Leishmanicidal activity [26]: 80- 90% lysis | Leishmanicidal activity [3]: 80- 90% lysis | Leishmanicidal activity [4]: 80- 90% lysis | Leishmanicidal activity [11]: 80- 90% lysis | Leishmanicidal activity [27]: 80- 90% lysis | Leishmanicidal activity [28]: 80- 90% lysis | Leishmanicidal activity [12]: 80- 90% lysis

COc1cc(CC(=O)c2ccc(C)o2)cc(OC)c1OC
Leishmanicidal activity [10]: 80- 90% lysis | Leishmanicidal activity [11]: 80- 90% lysis | Leishmanicidal activity [25]: 80- 90% lysis | Leishmanicidal activity [12]: 80- 90% lysis

COc1ccc(CCc2ccco2)cc1O
Leishmanicidal activity [2]: 80- 90% lysis | Leishmanicidal activity [5]: 80- 90% lysis | Leishmanicidal activity [25]: 80- 90% lysis

COc1cc(CCc2cn(C)c3ccccc23)cc(OC)c1OC
Leishmanicidal activity [10]: 80- 90% lysis | Leishmanicidal activity [26]: 80- 90% lysis | Leishmanicidal activity [11]: 80- 90% lysis | Leishmanicidal activity [27]: 80- 90% lysis | Leishmanicidal activity [28]: 80- 90% lysis | Leishmanicidal activity [12]: 80- 90% lysis

COc1cc(CC(=O)c2ccoc2)cc(OC)c1OC
Leishmanicidal activity [2]: 80- 90% lysis | Leishmanicidal activity [5]: 80- 90% lysis | Leishmanicidal activity [25]: 80- 90% lysis

COc1cc(CC(O)c2ccco2)cc(OC)c1OC (stereo not given)
Leishmanicidal activity [2]: 80- 90% lysis | Leishmanicidal activity [5]: 80- 90% lysis | Leishmanicidal activity [25]: 80- 90% lysis

COc1cc(CC(=O)c2ccc3c(c2)OCO3)cc(OC)c1OC
Leishmanicidal activity [10]: 80- 90% lysis | Leishmanicidal activity [26]: 80- 90% lysis | Leishmanicidal activity [4]: 80- 90% lysis | Leishmanicidal activity [11]: 80- 90% lysis | Leishmanicidal activity [27]: 80- 90% lysis | Leishmanicidal activity [28]: 80- 90% lysis | Leishmanicidal activity [12]: 80- 90% lysis

COc1cc(CCc2ccc3ccccc3c2)cc(OC)c1OC
Leishmanicidal activity [1]: 80- 90% lysis | Leishmanicidal activity [3]: 80- 90% lysis | Leishmanicidal activity [4]: 80- 90% lysis

COc1cc(CC2(c3cn(C)c4ccccc34)SCCCS2)cc(OC)c1OC
Leishmanicidal activity [29]: 80-90% of lysis | Leishmanicidal activity [30]: 80-90% of lysis | Leishmanicidal activity [31]: 80-90% of lysis

COc1ccc2[nH]c(-c3ccco3)c(-c3cc(OC)c(OC)c(OC)c3)c2c1
Leishmanicidal activity [10]: 80- 90% lysis | Leishmanicidal activity [11]: 80- 90% lysis | Leishmanicidal activity [12]: 80- 90% lysis

COc1ccc(CC(=O)c2ccco2)cc1O
Leishmanicidal activity [2]: 80- 90% lysis | Leishmanicidal activity [5]: 80- 90% lysis | Leishmanicidal activity [25]: 80- 90% lysis
